Earlier results in patent publication US20120259389A1, “TREATMENT OF POSTPRANDIAL HYPERGLYCEMIA BY GASTRIC ELECTRICAL STIMULATION” (priority 2009, published 2012).

Tested on: ZDF rats
Conditions: Type II diabetic ZDF rats; 300 mg/kg/day for 28 days; reported by Uhles et al. 2009

## CN(C)C(=N)N=C(N)N [Metformin]
  reduction in mean change in blood glucose AUC: 21%
